Results on eleven compounds are retold here after ChEMBL document CHEMBL3217605, “Synthesis, microbial transformation, and pharmacological evaluation of 4,5-dihydronaphtho[2,1-b]furan-2-ones and related analogues” (Medchemcomm, 2013).

Each structure is given as a SMILES string. Active and inactive are the calls of the source. The calls are words filed in the database; no cut-off is given here.

Broadly, the IC50 is the point on the concentration scale where inhibition reaches its midpoint.

The nature of data set [1]: Toxicity in LPS-induced activated rat Microglia cells assessed as LDH release at 0.1 to 10 uM.
In data set [2] the test system is MDA-MB-231. The data set can be described thus: Antimigratory activity against human MDA-MB-231 cells assessed cell migration level at 30 uM by wound healing assay. The format is functional.
Data set [3] relates to MDA-MB-231. The experiment in a line: Cytotoxicity against human MDA-MB-231 cells at 10 to 30 uM. The following applies: mda-mb-231, 30 µM. The class given is cell-based.
Data set [4] relates to MDA-MB-231. The experiment in a line: Antimigratory activity against human MDA-MB-231 cells assessed cell migration level at 10 uM by wound healing assay. The format is functional.
Data set [5] concerns Microglia. The data set can be described thus: Anti-neuroinflammatory activity in LPS-induced activated rat Microglia cells assessed as reduction in TXB2 release at 10 uM. The format is functional.
For data set [6], the system named is Microglia. The experiment in a line: Anti-neuroinflammatory activity in LPS-induced activated rat Microglia cells assessed as reduction in super oxide anion radical generation at 10 uM. The format is functional.
Another data set has as its system Malme-3M. The data set can be described thus: Growth inhibition of human MALME-3M cells assessed as cell growth at 10 uM after 48 hrs by SRB assay. The class given is functional. The following applies: read-out: Activity. For orientation: In SRB staining, fixed cells bind dye roughly in proportion to their protein.
The nature of data set [7]: Growth inhibition of human UACC62 cells assessed as cell growth at 10 uM after 48 hrs by SRB assay. The class given is functional. The settings on record: UACC-62, 48 h, read-out: Activity.
A further data set has as its system MCF7. The data set can be described thus: Growth inhibition of human MCF7 cells assessed as cell growth at 10 uM after 48 hrs by SRB assay. The class given is functional. The following applies: MCF7, 48 h, read-out: Activity.
A further data set concerns RPMI-8226. The data set can be described thus: Growth inhibition of human RPMI8226 cells assessed as cell growth at 10 uM after 48 hrs by SRB assay. The format is functional. The settings on record: RPMI-8226, 48 h, read-out: Activity.
The next data set deals with SK-MEL-5. The data set can be described thus: Growth inhibition of human SK-MEL-5 cells assessed as cell growth at 10 uM after 48 hrs by SRB assay. The format is functional. The following applies: SK-MEL-5, 48 h, read-out: Activity.
In another data set the test system is HL-60(TB). The data set can be described thus: Growth inhibition of human HL-60(TB) cells assessed as cell growth at 10 uM after 48 hrs by SRB assay. The class given is functional. The settings on record: HL-60, 48 h, read-out: Activity.
Data set [8] is described as follows: Anti-neuroinflammatory activity in LPS-induced activated rat Microglia cells assessed as reduction in TXB2 release. The class given is functional.
The subject of the next data set is MDA-MB-468. The data set can be described thus: Growth inhibition of human MDA-MB-468 cells assessed as cell growth at 10 uM after 48 hrs by SRB assay. The class given is functional. The settings on record: MDA-MB-468, 48 h, read-out: Activity.
Data set [9] in a line: Growth inhibition of human NCI60 cells assessed as mean cell growth at 10 uM after 48 hrs by SRB assay. The class given is functional. Set-up: scale not given: the % may be the effect or the level left.
The test system of a further data set is K562. The data set can be described thus: Growth inhibition of human K562 cells assessed as cell growth at 10 uM after 48 hrs by SRB assay. The format is functional. The settings on record: K562, 48 h, read-out: Activity.
In a further data set the test system is PC-3. The data set can be described thus: Growth inhibition of human PC3 cells assessed as cell growth at 10 uM after 48 hrs by SRB assay. The following applies: PC-3, 48 h, read-out: Activity. The class given is functional.
Another data set relates to T47D. The experiment in a line: Growth inhibition of human T47D cells assessed as cell growth at 10 uM after 48 hrs by SRB assay. The class given is functional. The settings on record: read-out: Activity.
The subject of another data set is M14. The data set can be described thus: Growth inhibition of human M14 cells assessed as cell growth at 10 uM after 48 hrs by SRB assay. The class given is functional. The settings on record: M14, 48 h, read-out: Activity.
The nature of data set [10]: Anti-neuroinflammatory activity in LPS-induced activated rat Microglia cells assessed as reduction in super oxide anion radical generation. The class given is functional.
Data set [11] can be described thus: Toxicity in LPS-induced activated rat Microglia cells assessed as LDH release at 10 uM. Background: LDH leaks from cells whose membrane has failed.

Regarding `COc1ccc2c(c1)[C@@H]1[C@H](CC2)OC(=O)[C@H]1c1ccccc1` (relative stereo), the Activity entry was “Non-toxic” in data set [1], 45.7% with MDA-MB-231 [2], “Non-toxic” in the data set on MDA-MB-231 [3] and 100% with MDA-MB-231 [4]. Besides, the inhibition result in the data set on Microglia [5] and in the data set on Microglia [6] was “inactive” throughout.

Turning to `COc1ccc2c(c1)[C@@H]1[C@H](CC2)OC(=O)[C@@H]1c1ccccc1` (relative stereo), the Activity entry is on record as “Non-toxic” in data set [1], 48.4% in the data set with MDA-MB-231 [2], “Non-toxic” with MDA-MB-231 [3] and 90.7% with MDA-MB-231 [4]. Further, the inhibition entry in the data set on Microglia [5] and in the data set with Microglia [6] was “inactive” throughout.

For the compound `COc1ccc2c(c1)C1=C(c3ccccc3)C(=O)OC1CC2` (centres undefined), the growth at 10 µM in the data set on Malme-3M was determined as 35.9%; in [7], 35.4%; with MCF7, 59.5%; with RPMI-8226, 18.1%; in the data set with SK-MEL-5, 48.7%; in the data set with HL-60(TB), 53%. Also, the growth at 10 µM came to 27.4% in the data set with MDA-MB-468; 42.1% in the data set with K562; 32% in the data set on PC-3; 30.9% with T47D; 64.9% with M14. Also, the Activity result in data set [1] is listed as “Non-toxic”; in the data set with MDA-MB-231 [2], 53.2%; in the data set on MDA-MB-231 [3] it was “Non-toxic”; in data set [9] it was 65.7%; in the data set on MDA-MB-231 [4], 76.7%. In addition, the IC50 in data set [8] came out at 1000 nM. In addition, in the data set on Microglia [6], the inhibition entry was “inactive”.

Consider `C=CCN1C(=O)C(c2ccccc2)=C2c3cc(OC)ccc3CCC21` (centres undefined), for which the growth at 10 µM with Malme-3M was 0.19%; in data set [7] it was 35.3%; in the data set on MCF7 it was 61.5%; in the data set on RPMI-8226, 11.5%; in the data set with SK-MEL-5 it was 40.9%; in the data set with HL-60(TB), 34.9%. Moreover, the growth at 10 µM with MDA-MB-468 was determined as 36.3%; in the data set with K562, 28.3%; in the data set with PC-3, 25.7%; with T47D, 40.7%; in the data set on M14, 46.7%. Further, the Activity entry is “Non-toxic” in [1]; 32.9% with MDA-MB-231 [2]; “Non-toxic” in the data set with MDA-MB-231 [3]; 59.8% in [9]; 47.8% in the data set with MDA-MB-231 [4]. The half-inhibitory concentration (IC50) in data set [8] and in data set [10] was 1000 nM throughout. Also, the inhibition result in the data set on Microglia [5] and in the data set on Microglia [6] was “inactive” each time.

On to `COc1ccc2c(c1)C1=C(C)C(=O)OC1C[C@H]2O` (some centres undefined), for which the Activity entry is “Non-toxic” in data set [1], 42.5% in the data set on MDA-MB-231 [2], “Non-toxic” in the data set with MDA-MB-231 [3] and 51.6% with MDA-MB-231 [4]. Moreover, the inhibition result in the data set with Microglia [5] and in the data set on Microglia [6] was “inactive” in each case.

As to `COc1cccc2c1CCC1OC(=O)C(C)=C21` (centres undefined), in [11], the Activity entry is reported as “Toxic”.

As for `COc1cccc2c1CC[C@@H]1OC(=O)[C@H](C)[C@H]21`, the Activity entry in [1] is “Non-toxic”; in the data set on MDA-MB-231 [2], 68.4%; in the data set on MDA-MB-231 [3], “Non-toxic”; in the data set on MDA-MB-231 [4] it was 87.6%. Further, the inhibition entry in the data set with Microglia [5] and in the data set with Microglia [6] was “inactive” in each case.

Take `COc1ccc2c(c1)C1=C(C)C(=O)OC1CC2` (centres undefined): the growth at 10 µM in the data set on Malme-3M worked out at 35.4%; in data set [7] it was 57.1%; with MCF7, 65.2%; in the data set on RPMI-8226, 20.7%; in the data set with SK-MEL-5, 65.8%; in the data set on HL-60(TB), 74.2%. For the same compound, the growth at 10 µM with MDA-MB-468 is 40.8%; in the data set with K562, 54.2%; in the data set on PC-3 it was 43%; with T47D, 64.3%; in the data set with M14 it was 63.7%. For the same compound, the Activity entry in [1] is on record as “Non-toxic”; in the data set with MDA-MB-231 [2] it was 47.8%; in the data set with MDA-MB-231 [3], “Non-toxic”; in data set [9], 73.9%; in the data set with MDA-MB-231 [4], 71.4%. The inhibition entry in the data set on Microglia [5] and in the data set on Microglia [6] was “inactive” throughout.

Turning to `COc1ccc2c(c1)C1=C(CO)C(=O)OC1CC2` (centres undefined), the Activity entry in [1] is “Non-toxic”; in the data set on MDA-MB-231 [2], 61%; in the data set with MDA-MB-231 [3], “Non-toxic”; in the data set with MDA-MB-231 [4], 81.8%. In addition, the inhibition entry in the data set on Microglia [5] and in the data set on Microglia [6] was “inactive” throughout.

On to `COc1ccc2c(c1)C1=C(c3ccccc3)C(=O)OC1C[C@H]2O` (some centres undefined), for which the Activity entry is listed as “Non-toxic” in data set [1], 45.9% in the data set on MDA-MB-231 [2], “Non-toxic” in the data set on MDA-MB-231 [3] and 54.4% with MDA-MB-231 [4]. For the same compound, the inhibition result in the data set with Microglia [5] and in the data set on Microglia [6] was “inactive” each time.

In the case of `NC(=O)Cc1ccccc1`, the Activity result is given as “Non-toxic” in [1], 70.4% with MDA-MB-231 [2], “Non-toxic” with MDA-MB-231 [3] and 94.5% with MDA-MB-231 [4]. The inhibition result in the data set on Microglia [5] and with Microglia [6] was “inactive” in each case.
